Assay results: US11986471B2, “Compounds and methods of use” (Tango Therapeutics, Inc., priority 2018, dated 2024)

Assays:
Format in all cases: biochemical
PRMT5 [1] = molecular target: T1, PRMT5 (Homo sapiens, UniProt O14744); assay: PRMT5 IC50 assay in the presence of SAM as cofactor
T1 construct: purchased Viva (custom protein)
From the text: (§1) Table 1a indicates IC50 values (μM) against PRMT5 for exemplary compounds in the presence of SAM as cofactor, with no cofactor and with MTA as cofactor, respectively (columns 3-5). […] The Ki values can be calculated from the IC50 values as described in the Examples section. As detailed in the Examples section, for the assay performed in the presence of SAM, IC50=Ki×1.5 (Ki=IC50/1.5). For the assay performed in the presence of MTA, IC50=Ki×13.5 (Ki=IC50/13.5). Column 6 indicates the ratio between the Ki of compounds in the presence of SAM and the Ki of compounds in the presence of MTA

PRMT5 [2] = molecular target: T1, PRMT5; assay: PRMT5 IC50 assay with no cofactor
From the text: as §1

PRMT5 [3] = molecular target: T1, PRMT5; assay: PRMT5 IC50 assay in the presence of MTA as cofactor; details: for IC50: PRMT5, MTA as cofactor
From the text: as §1

[4] = ratio between the Ki in the presence of SAM and the Ki in the presence of MTA
[5] = ratio between Ki in the presence of SAM and Ki in the presence of MTA

T1 sequence (O14744 whole entry): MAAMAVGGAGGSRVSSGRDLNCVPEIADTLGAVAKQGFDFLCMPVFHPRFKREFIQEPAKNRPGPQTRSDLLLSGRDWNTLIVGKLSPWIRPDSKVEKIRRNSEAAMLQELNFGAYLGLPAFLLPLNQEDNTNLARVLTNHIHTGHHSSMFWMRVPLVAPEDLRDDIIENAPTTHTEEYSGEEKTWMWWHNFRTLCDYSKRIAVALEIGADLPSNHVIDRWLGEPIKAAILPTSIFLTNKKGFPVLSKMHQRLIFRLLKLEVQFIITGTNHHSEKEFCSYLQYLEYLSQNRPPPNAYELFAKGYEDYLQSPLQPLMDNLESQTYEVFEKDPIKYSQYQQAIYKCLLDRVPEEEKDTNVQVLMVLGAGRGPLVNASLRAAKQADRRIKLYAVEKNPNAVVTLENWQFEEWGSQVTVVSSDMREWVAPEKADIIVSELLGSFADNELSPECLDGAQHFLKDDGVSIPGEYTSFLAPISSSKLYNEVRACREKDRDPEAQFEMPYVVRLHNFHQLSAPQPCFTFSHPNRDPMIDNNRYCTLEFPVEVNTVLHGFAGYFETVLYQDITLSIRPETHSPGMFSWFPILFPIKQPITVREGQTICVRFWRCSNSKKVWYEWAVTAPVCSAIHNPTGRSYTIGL
T1 sequence (Q9BQA1 whole entry partner): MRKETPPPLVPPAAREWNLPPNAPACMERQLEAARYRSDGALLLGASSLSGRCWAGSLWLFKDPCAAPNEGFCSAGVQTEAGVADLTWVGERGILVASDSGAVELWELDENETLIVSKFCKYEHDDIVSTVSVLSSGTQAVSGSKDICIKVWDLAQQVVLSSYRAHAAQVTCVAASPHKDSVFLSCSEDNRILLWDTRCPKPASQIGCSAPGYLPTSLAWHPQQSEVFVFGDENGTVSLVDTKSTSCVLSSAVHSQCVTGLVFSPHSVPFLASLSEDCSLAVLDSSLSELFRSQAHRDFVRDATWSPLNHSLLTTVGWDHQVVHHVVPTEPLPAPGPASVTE

Compound	IC50 (PRMT5 [1]) [nM]	IC50 (PRMT5 [2]) [nM]	IC50 (PRMT5 [3]) [nM]	IC50 (PRMT5 [2]; read-out: No Co-factor IC50) [nM]	SAM/MTA Ratio (PRMT5 [3]; [4])	SAM/MTA Ratio (PRMT5 [3]; [5])
O=C(NC[C@H](O)CN1CCc2c(ccc(OCc3cnn[nH]3)c2Cl)C1)c1ccnc(NC2CCC2)c1 [Compound 269, N-[(2S)-3-[5-chloro-6-(1H-triazol-5-ylmethoxy)-3,4-dihydro-1H-isoquinolin-2-yl]-2-hydroxy-propyl]-2-(cyclobutylamino)pyridine-4-carboxamide]	500 to 5000		500 to 5000	≥ 5000		A (a Ki ratio greater than or equal to 10 fold between the Ki in the presence of SAM and the Ki in the presence of MTA)
CC(=O)N1CCC(Nc2cc(C(=O)NC[C@H](O)CN3CCc4c(ccc(OCc5cnnn5C)c4C)C3)ncn2)CC1 [Compound 276, (S)-6-((1-acetylpiperidin-4-yl)amino)-N-(2-hydroxy-3-[5-methyl-6-((1-methyl-1H-1,2,3-triazol-5-yl)methoxy)-3N-dihydroisoquinolin-2(1H)-yl)propyl)pyrimidine-4-carboxamide]	500 to 5000		500 to 5000	≥ 5000		A (a Ki ratio greater than or equal to 10 fold between the Ki in the presence of SAM and the Ki in the presence of MTA)
O[C@@H](CNc1nccc(-c2sccc2Br)n1)CN1CCc2cc(OCc3cnco3)ccc2C1 [Compound 331, (S)-1-((4-(3-bromothiophen-2-yl)pyrimidin-2-yl)amino)-3-(6-(oxazol-5-ylmethoxy)-3,4-dihydroisoquinolin-2(1H)-yl)propan-2-ol]	500 to 5000		500 to 5000	500 to 5000		A (a Ki ratio greater than or equal to 10 fold between the Ki in the presence of SAM and the Ki in the presence of MTA)
Cc1c(OCc2cnco2)cc(F)c2c1CCN(C[C@H](O)CNC(=O)c1ccnc(NC3CCC3)c1)C2 [Compound 332, 2-(cyclobutylamino)-N-[(2R)-3-[8-fluoro-5-methyl-6-(oxazol-5-ylmethoxy)-3,4-dihydro-1H-isoquinolin-2-yl]-2-hydroxy-propyl]pyridine-4-carboxamide]	500 to 5000		500 to 5000	≥ 5000		A (a Ki ratio greater than or equal to 10 fold between the Ki in the presence of SAM and the Ki in the presence of MTA)
O=C(NC[C@H](O)CN1CCc2c(ccc(OCc3cnco3)c2Br)C1)c1cc(NC2CCCCC2)ncn1 [Compound 377, (S)—N-(3-(5-bromo-6-(oxazol-5-ylmethoxy)-3A-dihydroisoquinolin-2(1H)-yl)-2-hydroxypropyl)-6-(cyclohexylamino)pyrimidine-4-carboxamide]	500 to 5000		500 to 5000	≥ 5000		A (a Ki ratio greater than or equal to 10 fold between the Ki in the presence of SAM and the Ki in the presence of MTA)
CCCN(C)c1cc(C(=O)NC[C@H](O)CN2CCc3c(ccc(OCc4cnco4)c3Cl)C2)cc(NC2CCC2)n1 [Compound 453, (S)—N-(3-(5-chloro-6-(oxazol-5-ylmethoxy)-3N-dihydroisoquinolin-2(1H)-yl)-2-hydroxypropyl)-2-(cyclobutylamino)-6-(methyl(propyl)amino)isonicotinamide]	500 to 5000	≥ 5000	500 to 5000		A (a Ki ratio greater than or equal to 10 fold between the Ki in the presence of SAM and the Ki in the presence of MTA)	
CC(=O)N1CC(Nc2cc(C(=O)NCC(O)CN3CCc4cc(OCc5ocnc5C)ccc4C3)nc(N3CCCCC3)c2)C1 (centres unmarked) [Compound 580]		500 to 5000				

Second part, led by results:

IC50 (PRMT5 [1]) [nM]	IC50 (PRMT5 [2]) [nM]	IC50 (PRMT5 [3]) [nM]	IC50 (PRMT5 [2]; read-out: No Co-factor IC50) [nM]	Compound	SAM/MTA Ratio (PRMT5 [3]; [4])	SAM/MTA Ratio (PRMT5 [3]; [5])
500 to 5000	≥ 5000	500 to 5000		Cc1ncoc1COc1ccc2c(c1)[C@@H](O)CN(C[C@@H](O)CNC(=O)c1ccnc(NC3CCC3)c1)C2 (single isomer, unassigned) [Compound 505]	A (a Ki ratio greater than or equal to 10 fold between the Ki in the presence of SAM and the Ki in the presence of MTA)	
50 to 500		50 to 500	≥ 5000	COCCN(C)c1cc(NC2CCN(C(C)=O)CC2)cc(C(=O)NC[C@@H](O)CN2CCc3cc(OCc4ocnc4C)ccc3C2)c1 (single isomer, unassigned) [Compound 648]		A (a Ki ratio greater than or equal to 10 fold between the Ki in the presence of SAM and the Ki in the presence of MTA)
500 to 5000		500 to 5000	≥ 5000	COCCN(C)c1cc(NC2CCN(C(C)=O)CC2)cc(C(=O)NC[C@H](O)CN2CCc3cc(OCc4ocnc4C)ccc3C2)c1 (single isomer, unassigned) [Compound 649]		A (a Ki ratio greater than or equal to 10 fold between the Ki in the presence of SAM and the Ki in the presence of MTA)
500 to 5000		500 to 5000	≥ 5000	Cc1c(OCc2ccnn2C)ccc2c1CCN(C[C@@H](O)CNC(=O)c1ccnc(NC3CCC3)c1)C2 [Compound 161, 2-(cyclobutylamino)-N-[(2S)-2-hydroxy-3-[5-methyl-6-[(2-methylpyrazol-3-yl)methoxy]-3,4-dihydro-1H-isoquinolin-2-yl]propyl]pyridine-4-carboxamide]		A (a Ki ratio greater than or equal to 10 fold between the Ki in the presence of SAM and the Ki in the presence of MTA)
50 to 500		< 50	500 to 5000	O=C1N[C@H]2[C@H](CS[C@H]2CCCCC(=O)N2CCC(Nc3cc(C(=O)NC[C@H](O)CN4CCc5cc(OCc6cnco6)ccc5C4)ncn3)CC2)N1 [Compound 265]		A (a Ki ratio greater than or equal to 10 fold between the Ki in the presence of SAM and the Ki in the presence of MTA)
50 to 500		50 to 500	500 to 5000	CC1(CCC(=O)N2CCC(Nc3cc(C(=O)NC[C@H](O)CN4CCc5cc(OCc6cnco6)ccc5C4)ncn3)CC2)N=N1 [Compound 363, N-[(2S)-2-hydroxy-3-[6-(oxazol-5-ylmethoxy)-3N-dihydro-1H-isoquinolin-2-yl]propyl]-6-[[1-[3-(3-methyldiazirine-3-yl)propanoyl]-4-piperidyl]amino]pyrimidine-4-carboxamide]		A (a Ki ratio greater than or equal to 10 fold between the Ki in the presence of SAM and the Ki in the presence of MTA)
500 to 5000	≥ 5000	50 to 500		O=C(NC[C@H](O)CN1CCc2c(ccc(OCc3cnco3)c2Cl)C1)c1cc(NC2CCC2)ncn1 [Compound 508, (S)—N-(3-(5-chloro-6-(oxazol-5-ylmethoxy)-3,4-dihydroisoquinolin-2(1H)-yl)-2-hydroxypropyl)-6-(cyclobutylamino)pyrimidine-4-carboxamide]	A (a Ki ratio greater than or equal to 10 fold between the Ki in the presence of SAM and the Ki in the presence of MTA)	
500 to 5000	≥ 5000	50 to 500		Cc1c(OCc2cnco2)ccc2c1CCN(C[C@@H](O)CNC(=O)c1cncc(NC3CCOC3)c1)C2 (some centres unmarked) [Compound 510]	A (a Ki ratio greater than or equal to 10 fold between the Ki in the presence of SAM and the Ki in the presence of MTA)	
		50 to 500	500 to 5000	CC(=O)N1CCC(Nc2cc(C(=O)NCC(O)CN3CCc4nc(OCc5ocnc5C)ccc4C3)cc(N3CCCCC3)n2)CC1 (centres unmarked) [Compound 654]		
